Data on twelve compounds can be found in paper PMC6753678, “Fueling Open Innovation for Malaria Transmission-Blocking Drugs: Hundreds of Molecules Targeting Early Parasite Mosquito Stages” (Frontiers in Microbiology, 2019).

Data set [1] deals with HepG2 cells. As to the kind of experiment: HepG2 cytotoxicity assay. Conditions: for IC50: read-out: HepG2 cytotoxicity assay IC50, dose response confirmation. The procedure, abridged:
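Cells at 2,500 per well in MEM with 10% fetal bovine serum and 1% NEAA were exposed to test compounds for 48 h at 37°C, 5% CO2. Viability was read by fluorescence, with percent inhibition calculated against 50 μM doxorubicin (positive) and DMSO (negative) controls.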

Data set [2] relates to P. falciparum female gametocytes. Set-up: method as in Miguel-Blanco et al 2017. Conditions: ref Miguel-Blanco et al 2017; read-out: Pf FGAA IC50; cited from earlier work.
For data set [3] the test system is unchanged. The data set is described as follows: P. falciparum female gametogenesis assay (Pf FGAA). Conditions: 1: YES; 0: NO; >10-fold selectivity over cytotox.
Data set [4] concerns HepG2 cells. Conditions: HepG2; ref Miguel-Blanco et al 2017; cited from earlier work.
Data set [5] has as its system 3D7-strain P. falciparum asexual parasites. As to the kind of experiment: P. falciparum asexual growth inhibition assay (Pf GIA). It is filed as cell-based, Plasmodium falciparum. The conditions noted are these: dose response confirmation; read-out: Pf asexual growth inhibition assays IC50. The procedure, abridged: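 3D7 parasites at 0.25% parasitemia, 2% hematocrit were exposed to compounds in dose response for 72 h at 37°C under 5% CO2, 5% O2. Viability read as parasite LDH activity (nitro blue tetrazolium, A650) after freeze-thaw; inhibition scaled to chloroquine (50 μM) and DMSO controls, mean of three biological replicates.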

For data set [6], the system named is P. berghei ookinete development. The conditions noted are these: for % inhibition, Replicate A / % inhibition, Replicate B: primary screen at 1 μM.
Setting [7] is: unified HepG2 cytotoxicity across the three screens.
Where [8] appears, read: HepG2 values of the three screens unified.
[9] abbreviates: read-out: Pb ODA IC50, this manuscript.
The mark [10] stands for this setting: read-out: Pb Ookinete development assay IC50, dose response confirmation.

Where two headings read alike, the source gives them in different places.

Consider `Cc1c(Cn2nc(Cl)c(N3CCNCC3)cc2=O)cccc1NC(=O)Nc1ccc(-c2ccccc2)cc1.O=C(O)C(F)(F)F` [TCMDC-141699], for which, in data set [1] (setting [7]), the Unified cytotox was 4.22 µM. Besides, the concentration for half-maximal inhibition (IC50) in data set [2] is 4910 nM. For the same compound, the “Is compound selective in assay? Pf FGAA active?” value in data set [3] was 0 (0: NO).
Regarding `Cc1cc(N)c2cc(NC(=O)c3cc(C(F)(F)F)cc(C(F)(F)F)c3)ccc2n1.Cl` [TCMDC-139377], the Unified cytotox in data set [1] (setting [7]) stood at 2.60 µM. In data set [2], the 50% inhibitory concentration (IC50) was 860 nM. In addition, the “Is compound selective in assay? Pf FGAA active?” value in data set [3] was 0 (0: NO).
With `O=C(Nc1cc(Cl)c(Cl)cc1NC(=O)c1cccc(-c2ccccc2)c1O)c1cccc(-c2ccccc2)c1O` [TCMDC-139548], the Unified cytotox in data set [1] (setting [7]) was found to be 3.09 µM. Besides, the IC50 in data set [2] is 1090 nM. In data set [3], the “Is compound selective in assay? Pf FGAA active?” value is 0 (0: NO).
Turning to `CC(Cc1ccc(NC(=O)c2ccc(CNCCCCc3ccccc3)cc2)cc1)NCCc1cccc(Cl)c1.Cl` (stereo not shown) [TCMDC-139866], the Unified cytotox in data set [1] (setting [7]) is listed as 1.97 µM. Also, in data set [2], the IC50 is 1120 nM. The “Is compound selective in assay? Pf FGAA active?” value in data set [3] is on record as 0 (0: NO).
On to `CN(C)CCCNCc1ccc(-c2ccc(C(F)(F)F)cc2)cc1` [TCMDC-140011], for which the Unified cytotox in data set [1] (setting [7]) is 4.90 µM. For the same compound, in data set [2], the 50% inhibitory concentration (IC50) was 1680 nM. Moreover, the “Is compound selective in assay? Pf FGAA active?” value in data set [3] is 0 (0: NO).
`Cc1cc2nc(N=C3NC4(c5ccccn5)NC(=Nc5nc6cc(C)c(C)cc6[nH]5)NC4(c4ccccn4)N3)[nH]c2cc1C.O=C(O)C(F)(F)F` (stereo not shown) [TCMDC-139105] returned a Unified cytotox in data set [1] (setting [7]) of 35.91 µM. The 50% inhibitory concentration (IC50) in data set [2] was 5340 nM. For the same compound, in data set [3], the “Is compound selective in assay? Pf FGAA active?” value was 0 (0: NO).
In the case of `CC(C)Cn1cc(C2CCN(CCN3CCC(CNC(=O)c4ccc(-c5ccc(C(F)(F)F)cc5)cc4)CC3)CC2)c2ccccc21` [TCMDC-138852], the Unified cytotox in data set [1] (setting [7]) turned out to be 4.80 µM. Further, the half-maximal inhibitory concentration (IC50) in data set [2] is 880 nM. Further, the “Is compound selective in assay? Pf FGAA active?” value in data set [3] is on record as 0 (0: NO).
Compound `Oc1ccc2[nH]cc(C3CCN(CCCNCc4ccc(-c5ccccc5)cc4)CC3)c2c1` [TCMDC-139047] came in with a Unified cytotox in data set [1] (setting [7]) of 5.62 µM. Moreover, in data set [2], the IC50 was 1440 nM. The “Is compound selective in assay? Pf FGAA active?” value in data set [3] was 0 (0: NO).
Turning to `CCCCCCCN1CC[C@@H](CCCc2ccnc3ccc(OC)cc23)[C@@H](CNC)C1.O=C(O)C(=O)O` [TCMDC-139875], the Unified cytotox in data set [1] (setting [7]) is recorded as 5.89 µM. For the same compound, the 50% inhibitory concentration (IC50) in data set [2] is 730 nM. Besides, the “Is compound selective in assay? Pf FGAA active?” value in data set [3] is on record as 0 (0: NO).
In turn, `Cc1[nH]c(C)c(-c2ccc(CCc3ccc(F)cc3F)cc2)c(=O)c1Cl` [TCMDC-135462] returned a Unified cytotox in data set [1] (setting [8]) of 100.00 µM. The IC50 in data set [1] is 100000 nM; in data set [2], 13300 nM; in data set [5], 2.53 nM; in data set [6] (setting [9]), 10 nM; in data set [6] (setting [10]), 11 nM. Also, the “HepG2 cytoxicity (Pf FGAA screen)” value in data set [4] was more than 100 µM. Also, the “Is compound selective in assay? Pb ODA active?” value in data set [6] (1: YES, 0: NO) was 1 (1: YES). Also, in data set [6], the “% inhibition, Replicate A” value came to 91.00%. In data set [6], the “% inhibition, Replicate B” value was determined as 103.90%.
For the compound `CC(C)(CN)c1nc(-c2ccc(Cl)c(O)c2)c(-c2ccncc2)[nH]1.Cl` [TCMDC-140369], the “HepG2 cytoxicity (Pb ODA, this manuscript)” value in data set [1] (HepG2, this manuscript) came out at 1.66 µM. The compound also yielded a Unified cytotox in data set [1] (setting [8]) of 1.91 µM. In addition, the half-maximal inhibitory concentration (IC50) in data set [1] is 1660 nM; in data set [2], 940 nM; in data set [5], 194 nM; in data set [6] (setting [9]), 510 nM; in data set [6] (setting [10]), 514 nM. In data set [4], the “HepG2 cytoxicity (Pf FGAA screen)” value is recorded as 2.16 µM. The “% inhibition, Replicate A” value in data set [6] is on record as 54.47%. In addition, the “% inhibition, Replicate B” value in data set [6] is reported as 53.78%.
On to `CC(=O)Oc1c(Br)c(C)nc(C)c1-c1ccc(Oc2ccc(OC(F)(F)F)cc2)cc1` [TCMDC-137383], for which the “Pb ODA (this manuscript) HepG2 cytoxicity” value in data set [1] (HepG2 cytotoxicity listed with the Pb ODA data set (this manuscript)) was 9.89 µM. The IC50 in data set [1] came out at 9890 nM; in data set [5], 150 nM; in data set [6] (read-out: Pb ODA (this manuscript) IC50, P. berghei ookinete development assay, this manuscript), 590 nM; in data set [6] (setting [10]) it was 589 nM. In addition, in data set [6], the “Is compound selective in assay? Pb ODA active?” value is 1 (key: 1: YES; 0: NO). Moreover, the “% inhibition, Replicate A” value in data set [6] is listed as 98.12%. Besides, the “% inhibition, Replicate B” value in data set [6] turned out to be 79.70%.

What is called IC50 is the concentration at which inhibition is half-maximal.
